Reference: ChEMBL document CHEMBL5543167, “Design, Synthesis, and Biological Evaluation of Novel EGFR PROTACs Targeting C797S Mutation” (J Med Chem, 2024)
Activity calls are given as the source filed them. The calls are words filed in the database; no cut-off is given here.

Legend:
[1] = tested on: Protein cereblon/Epidermal growth factor receptor (Homo sapiens), P00533+Q96SW2 [L858R,T790M,C797S]; assay: PROTAC activity at CRBN/EGFR L858R/T790M/C797S mutant in human H1975-TM cells assessed as induction of EGFR degradation by measuring remaining activity at 1.2 nM incubated for 24 hrs by Western blot analysis (reference value: 100%); assay type: cell-based
[2] = tested on: Protein cereblon/Epidermal growth factor receptor (Homo sapiens), P00533+Q96SW2 [L858R,T790M,C797S]; assay: PROTAC activity at CRBN/EGFR L858R/T790M/C797S mutant in human H1975-TM cells assessed as induction of EGFR degradation by measuring remaining activity at 100 nM incubated for 24 hrs by Western blot analysis (reference value: 100%); assay type: cell-based
[3] = tested on: Protein cereblon/Epidermal growth factor receptor (Homo sapiens), P00533+Q96SW2 [L858R,T790M,C797S]; assay: PROTAC activity at CRBN/EGFR L858R/T790M/C797S mutant in human H1975-TM cells assessed as induction of EGFR degradation by measuring remaining activity at 300 nM incubated for 24 hrs by Western blot analysis (reference value: 100%); assay type: cell-based
[4] = tested on: Protein cereblon/Epidermal growth factor receptor (Homo sapiens), P00533+Q96SW2 [L858R,T790M,C797S]; assay: PROTAC activity at CRBN/EGFR L858R/T790M/C797S mutant in human H1975-TM cells assessed as induction of EGFR degradation by measuring remaining activity at 100 nM preincubated for 24 hrs followed by compound washout and measured after 12 hrs by Western blot analysis (reference value: 100%); assay type: cell-based
[5] = tested on: Protein cereblon/Epidermal growth factor receptor (Homo sapiens), P00533+Q96SW2 [L858R,T790M,C797S]; assay: PROTAC activity at CRBN/EGFR L858R/T790M/C797S mutant in human H1975-TM cells assessed as induction of EGFR degradation by measuring remaining activity at 50 nM preincubated with MLN4924 for 6 hrs followed by compound addition and measured after 24 hrs by Western blot analysis (reference value: 100%); assay type: cell-based
[6] = tested on: Protein cereblon/Epidermal growth factor receptor (Homo sapiens), P00533+Q96SW2 [L858R,T790M,C797S]; assay: PROTAC activity at CRBN/EGFR L858R/T790M/C797S mutant in human H1975-TM cells assessed as induction of EGFR degradation by measuring remaining activity at 50 nM preincubated with lenalidomide for 6 hrs followed by compound addition and measured after 24 hrs by Western blot analysis (reference value: 100%); assay type: cell-based
[7] = tested on: Protein cereblon/Epidermal growth factor receptor (Homo sapiens), P00533+Q96SW2 [UNDEFINED MUTATION]; assay: (§1) PROTAC activity at CRBN/EGFR exon 19 deletion/T790M/C797S mutant in human PC-9-TM cells assessed as induction of EGFR degradation incubated for 24 hrs by Western blot analysis; assay type: cell-based
[8] = biological target: T1, Protein cereblon/Epidermal growth factor receptor (Homo sapiens, UniProt P00533+Q96SW2); assay: as §1; assay type: cell-based
[9] = tested on: Protein cereblon/Epidermal growth factor receptor (Homo sapiens), P00533+Q96SW2 [L858R,T790M]; assay: (§2) PROTAC activity at CRBN/EGFR L858R/T790M mutant in human NCI-H1975 cells assessed as induction of EGFR degradation incubated for 24 hrs by Western blot analysis; assay type: cell-based
[10] = biological target: Protein cereblon/Epidermal growth factor receptor (Homo sapiens, UniProt P00533+Q96SW2, T790M/L858R); assay: as §2; assay type: cell-based
[11] = biological target: T1, Protein cereblon/Epidermal growth factor receptor; assay: PROTAC activity at CRBN/wildtype EGFR in human A549 cells assessed as induction of EGFR degradation incubated for 24 hrs by Western blot analysis; assay type: cell-based
[12] = Antiproliferative activity against human PC-9-TM cells harboring EGFR exon 19 deletion/T790M/[…] mutant assessed as inhibition of cell proliferation incubated for 72 hrs by CCK8 assay; assay type: functional, cell-based
[13] = biological target: Probable U3 small nucleolar RNA-associated protein 11 (Homo sapiens) (UniProt Q9Y3A2); assay: Induction of UTP11 degradation in human H1975-TM cells at 50 nM incubated for 24 hrs; assay type: cell-based
Probable U3 small nucleolar RNA-associated protein 11 (Homo sapiens), sequence (Q9Y3A2 whole entry): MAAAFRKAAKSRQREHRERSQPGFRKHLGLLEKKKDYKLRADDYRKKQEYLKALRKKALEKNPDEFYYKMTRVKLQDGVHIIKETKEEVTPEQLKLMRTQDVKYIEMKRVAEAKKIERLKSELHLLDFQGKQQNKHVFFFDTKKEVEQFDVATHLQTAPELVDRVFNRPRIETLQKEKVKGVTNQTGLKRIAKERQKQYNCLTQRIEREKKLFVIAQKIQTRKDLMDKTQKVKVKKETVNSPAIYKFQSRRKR

[14] = biological target: Ribosomal protein S6 kinase alpha-1 (Homo sapiens) (UniProt Q15418); assay: Induction of RPS6KA1 degradation in human H1975-TM cells at 50 nM incubated for 24 hrs; assay type: cell-based
Ribosomal protein S6 kinase alpha-1 (Homo sapiens), sequence (Q15418 whole entry): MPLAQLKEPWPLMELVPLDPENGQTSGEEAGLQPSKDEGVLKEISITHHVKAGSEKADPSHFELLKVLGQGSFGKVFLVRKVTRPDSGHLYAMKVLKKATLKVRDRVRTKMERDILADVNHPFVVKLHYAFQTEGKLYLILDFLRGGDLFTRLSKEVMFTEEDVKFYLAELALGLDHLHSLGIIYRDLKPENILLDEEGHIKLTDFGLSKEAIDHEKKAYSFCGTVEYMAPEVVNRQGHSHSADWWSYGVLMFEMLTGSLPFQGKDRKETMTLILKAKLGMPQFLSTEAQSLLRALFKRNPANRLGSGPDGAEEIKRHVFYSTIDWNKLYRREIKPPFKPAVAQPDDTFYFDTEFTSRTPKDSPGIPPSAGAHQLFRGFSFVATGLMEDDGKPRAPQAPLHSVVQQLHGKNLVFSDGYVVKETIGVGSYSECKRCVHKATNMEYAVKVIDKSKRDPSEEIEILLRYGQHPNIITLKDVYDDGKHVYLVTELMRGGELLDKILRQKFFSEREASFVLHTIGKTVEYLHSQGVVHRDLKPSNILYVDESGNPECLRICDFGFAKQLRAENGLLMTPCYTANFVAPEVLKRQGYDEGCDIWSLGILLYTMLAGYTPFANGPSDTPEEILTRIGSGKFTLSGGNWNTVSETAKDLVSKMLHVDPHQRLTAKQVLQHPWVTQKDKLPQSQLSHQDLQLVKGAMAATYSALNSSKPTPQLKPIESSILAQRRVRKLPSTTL

[15] = tested on: H1975-TM; assay: Inhibition of colony formation in human H1975-TM cells harboring EGFR L858R/T790M/C797S mutant at 3.7 to 100 nM incubated for 14 days by crystal violet staining based analysis; assay type: functional, cell-based; conditions: dose 3.7-100 nM, time 14.0 day
[16] = Inhibition of colony formation in human H1975-TM cells harboring EGFR L858R/T790M/C797S mutant at 33 nM incubated for 14 days by crystal violet staining based analysis relative to control; assay type: functional; conditions: 336 h, time 14 day
[17] = tested on: H1975-TM; assay: Induction of cell cycle arrest in human H1975-TM cells harboring EGFR L858R/T790M/C797S mutant assessed as accumulation of cells at G0/G1 phase at 5 to 60 nM incubated for 24 hrs by RNase/PI staining based analysis; assay type: functional; conditions: dose 5-60 nM
[18] = tested on: H1975-TM; assay: Induction of apoptosis in human H1975-TM cells harboring EGFR L858R/T790M/C797S mutant incubated for 24 hrs by Annexin V-FITC/PI staining based flow cytometric analysis; assay type: functional, cell-based; conditions: dose 33-100 nM
[19] = Antitumor activity against human H1975-TM cells xenografted in BALB/c nude mouse assessed as tumor growth inhibition at 25 mg/kg, po administered once daily for 31 days relative to control; assay type: functional; conditions: 744 h, time 31 day, read-out: TGI
[20] = Antitumor activity against human H1975-TM cells xenografted in BALB/c nude mouse assessed as tumor growth inhibition at 100 mg/kg, po administered once daily for 31 days relative to control; assay type: functional; conditions: 744 h, time 31 day, read-out: TGI
[21] = tested on: Mus musculus; assay: In vivo inhibition of EGFR signaling in BALB/c nude mouse xenografted with human […] cells assessed as reduction in EGFR phosphorylation at 25 to 100 mg/kg, po administered once daily for 31 days by Western blot analysis; assay type: functional, organism-based; conditions: dose 25-100 mg/kg, time 31.0 day
[22] = tested on: Mus musculus; assay: In vivo inhibition of EGFR signaling in BALB/c nude mouse xenografted with human […] cells assessed as reduction in ERK activation at 25 to 100 mg/kg, po administered once daily for 31 days by Western blot analysis; assay type: functional, organism-based; conditions: dose 25-100 mg/kg, time 31.0 day
[23] = Toxicity in BALB/c nude mouse xenografted with human H1975-TM cells assessed as lung lesions at 25 to 100 mg/kg, po administered once daily for 31 days by Hematoxylin and eosin staining based analysis; assay type: organism-based; conditions: in vivo, 744 h, dose 25-100 mg/kg, time 31 day
[24] = AUC (0 to infinity) in male Sprague-Dawley rat at 5 mg/kg, iv measured after 24 hrs by LC-MS/MS analysis; assay type: ADME, organism-based; conditions: in vivo
[25] = MRT (0 to infinity) in male Sprague-Dawley rat at 5 mg/kg, iv measured after 24 hrs by LC-MS/MS analysis; assay type: ADME, organism-based; conditions: in vivo
[26] = Half-life in male Sprague-Dawley rat at 5 mg/kg, iv measured after 24 hrs by LC-MS/MS analysis; assay type: ADME, organism-based; conditions: in vivo
[27] = Cmax in male Sprague-Dawley rat at 50 mg/kg, po measured after 24 hrs by LC-MS/MS analysis; assay type: ADME, organism-based; conditions: in vivo
[28] = Tmax in male Sprague-Dawley rat at 50 mg/kg, po measured after 24 hrs by LC-MS/MS analysis; assay type: ADME, organism-based; conditions: in vivo

## CCS(=O)(=O)n1cc(-c2nc(Nc3ccc(N4CCN(CCCCCCC(=O)Nc5cccc6c5CN(C5CCC(=O)NC5=O)C6=O)CC4)cc3)ncc2C(F)(F)F)c2ccccc21 (stereo not drawn)
[1]
  Activity: 107%
[2]
  Activity: 2.3%
[3]
  Activity: 0.1%
[4]
  Activity: 49.7%
[5]
  Activity: 51.7%
[6]
  Activity: 56.4%
[7]
  Activity: Dose-Dependent Effect
[8]
  DC50: 36.5 nM
[9]
  Activity: Dose-Dependent Effect
[10]
  DC50: 88.5 nM
[11]
  DC50: > 300 nM
[12]
  IC50: 43.5 nM
[13]
  Activity: Active
[14]
  Activity: Active
[15]
  inhibition: Active
[16]
  inhibition at 0.033 µM: ~100%
[17]
  Activity: Active
[18]
  Activity: Dose-Dependent Effect
[19]
  inhibition in vivo at 25 mg/kg: 48.1%
[20]
  inhibition in vivo at 100 mg/kg: 66.4%
[21]
  inhibition: Active
[22]
  inhibition: Active
[23]
  Activity: Non-Toxic
[24]
  AUC(0-inf): 1800 ng·h/mL
[25]
  MRT inf: 18.4 h
[26]
  half-life: 38 h
[27]
  Cmax: 57.8 ng/mL
[28]
  Tmax: 5.7 h
